Read-outs that look alike come from different tables or passages of the source.
Key:
Assay type in all cases: cell-based
Botrytis cinerea = test: In vitro microtest of Botrytis cinerea
Procedure: V.9. In vitro microtest of Botrytis cinerea
(§1) The microtest was performed in liquid medium with potato-dextrose broth (PDB) using microtitre plates.
(§2) The active compound is applied as the technical active substance dissolved in methanol.
(§3) A spore suspension of Botrytis cinerea was used for inoculation. After 5 days (combination A2+B1), 4 days (combination A3+B3), or 7 days ( combination A5+B1) of incubation by darkness under shaking (10 Hrz), the optical density in each cavity was evaluated with the aid of a microtitre plate reader. 0% means an efficacy which corresponds to that of the control, while an efficacy of 100% means that no fungal growth is observed.

Rhizoctonia solani = test: In vitro microtest of Rhizoctonia solani
Procedure: V.10. In vitro Microtest of Rhizoctania solani
as §1, §2
A mycelium suspension of Rhizoctonia solani was used for inoculation. After 3 days (combinations A1+B3, A3+B2), 7 days (combination A2+B1), 4 days (combination A4+B2) or 5 days (combination A5+B1) of incubation by darkness under shaking (10 Hrz), the optical density in each cavity was evaluated with the aid of a microtitre plate reader.
0% means an efficacy which corresponds to that of the control, while an efficacy of 100% means that no fungal growth is observed.

Penicillium brevicaule = test: In vitro microtest of Penicillium brevicaule (optical density in PDB, microtitre plates); settings: 7 days incubation
Coriolus versicolor = test: In vitro microtest of Coriolus versicolor; settings: 3 days incubation
Procedure: V.5. In vitro Microtest of Coriolus versicolor
as §1, §2
as §3, with “mycelium” for “spore”, “Coriolus versicolor” for “Botrytis cinerea”, “3” for “5”, “days” for “days (combination A2+B1), 4 days (combination A3+B3), or 7 days ( combination A5+B1)”

Septoria tritici = test: In vitro microtest of Septoria tritici; settings: 3 days incubation
Procedure: V.8. In vitro microtest of Septoria tritici
The microtest was performed in liquid medium with potato-dextrose broth (PDB) using microlitre plates.
(§4) The active compound is applied as the technical active substance dissolved in methanol. A spore suspension of Septoria tritici was used for inoculation. After 3 days of incubation by darkness under shaking (10 Hrz), the optical density in each cavity was evaluated with the aid of a microtitre plate reader. 0% means an efficacy which corresponds to that of the control, while an efficacy of 100% means that no fungal growth is observed.

Gibberella zeae = system: Gibberella zeae
Phytophthora cryptogea = test: In vitro microtest of Phytophthora cryptogea; settings: 3 ppm; 4 days incubation
Procedure: V.11. In vitro Microtest of Phytophthora cryptogea
as §1, §2
as §3, with “mycelium” for “spore”, “Phytophthora cryptogea” for “Botrytis cinerea”, “After” for “After 5 days (combination A2+B1),”, “days” for “days (combination A3+B3), or 7 days ( combination A5+B1)”

Alternaria mali = test: In vitro microtest of Alternaria mali; settings: 3 ppm; 4 days incubation
Procedure: V.6. In vitro Microtest of Alternaria mali
as §1
as §4, with “Alternaria mali” for “Septoria tritici”, “4” for “3”

Pyricularia oryzae = system: Pyricularia oryzae
Ustilago avenae = test: In vitro microtest of Ustilago avenae; settings: 1 ppm; 5 days incubation
Procedure: V.12. In vitro Microtest of Ustilago avenae
as §1, §2
as §3, with “Ustilago avenae” for “Botrytis cinerea”, “days” for “days (combination A2+B1), 4 days (combination A3+B3), or 7 days ( combination A5+B1)”

Which results are given for `COCC(=O)N(c1c(C)cccc1C)C(C)C(=O)OC` (centres unmarked) [A5, Metalaxyl]?
Efficacy in % (Botrytis cinerea; 0.0003 ppm, 7 days incubation): 4%; Efficacy in % (Rhizoctonia solani; 0.0003 ppm, 5 days incubation): 80%

Which results are given for `Cc1nn(C)c(F)c1C(=O)Nc1ccccc1C(C)CC(C)C` (centres unmarked) [A1, N-[2-(1,3-dimethylbutyl)phenyl]-5-fluoro-1,3-dimethyl-1H-pyrazole-4-carboxamide]?
Efficacy in % (Penicillium brevicaule; 0.3 ppm): 37%; Efficacy in % (Coriolus versicolor; 0.01 ppm): 97%; Efficacy in % (Septoria tritici; 0.01 ppm): 4%; Efficacy in % (Rhizoctonia solani; 0.003 ppm, 3 days incubation): 79%; Efficacy in % (Gibberella zeae; 1 ppm, 4 days incubation): 39%

Which Efficacy in % (Coriolus versicolor; 0.003 ppm) does the source give for `OC(Cc1ccccc1Cl)(Cn1nc[nH]c1=S)C1(Cl)CC1` (centres unmarked) [A2, Prothioconazole] here?
Its Efficacy in % is 48%.

And the Efficacy in % (Botrytis cinerea; 0.3 ppm, 5 days incubation)?
The Efficacy in % was 40%.

What about the Efficacy in % (Rhizoctonia solani; 0.1 ppm, 7 days incubation) of the same compound?
Its Efficacy in % is 50%.

What about the Efficacy in % (Phytophthora cryptogea) of the same compound?
Its Efficacy in % is 19%.

For `CC(C)(C)C(O)(CCc1ccc(Cl)cc1)Cn1cncn1` (centres unmarked) [A3, Tebuconazole], which Efficacy in % (Alternaria mali) is on record?
Its Efficacy in % is 97%.

What about the Efficacy in % (Pyricularia oryzae; 0.3 ppm, 5 days incubation) of the same compound?
Its Efficacy in % is 96%.

What about the Efficacy in % (Botrytis cinerea; 0.1 ppm, 4 days incubation) of the same compound?
The Efficacy in % was 33%.

And the Efficacy in % (Rhizoctonia solani; 3 ppm, 3 days incubation)?
Its Efficacy in % is 47%.

What about the Efficacy in % (Gibberella zeae; 0.01 ppm, 3 days incubation) of the same compound?
The Efficacy in % was 9%.

What does the source list for `CON=C(C(=O)OC)c1ccccc1CON=C(C)c1cccc(C(F)(F)F)c1` [A4, Trifloxystrobin]?
Efficacy in % (Pyricularia oryzae; 0.1 ppm, 3 days incubation): 63%; Efficacy in % (Rhizoctonia solani; 1 ppm, 4 days incubation): 43%; Efficacy in % (Ustilago avenae): 92%; Efficacy in % (Gibberella zeae; 0.1 ppm, 3 days incubation): 88%; Efficacy in % (Gibberella zeae; 1 ppm, 5 days incubation): 75%

With `CCCCCC/C=C\CCCOc1cccc(C(=O)N[C@@H]2C(O[C@H]3C(O)C(NC(C)=O)C(O[C@@H]4C(CO)O[C@@H](O[C@H]5C(O)C(NC(C)=O)C(OC6C(CO[C@@H]7OC(C)C(O)[C@H](O)[C@H]7OC)OC(O)[C@@H](NC(C)=O)[C@H]6O)O[C@H]5CO)[C@@H](NC(C)=O)C4O)O[C@H]3CO)OC(CO)[C@@H](O)[C@@H]2O)c1` (some centres unmarked) [B1] as the compound, how does the Efficacy in % (Penicillium brevicaule; 0.00003 ppm) read?
The Efficacy in % was 0%.

What about the Efficacy in % (Coriolus versicolor; 0.000001 ppm) of the same compound?
Its Efficacy in % is 22%.

What about the Efficacy in % (Pyricularia oryzae; 0.00001 ppm, 3 days incubation) of the same compound?
Its Efficacy in % is 2%.

And the Efficacy in % (Pyricularia oryzae; 0.00003 ppm, 5 days incubation)?
The Efficacy in % was 5%.

And the Efficacy in % (Septoria tritici; 0.000001 ppm)?
Its Efficacy in % is 1%.

What about the Efficacy in % (Botrytis cinerea; 0.00000003 ppm, 7 days incubation) of the same compound?
Its Efficacy in % is 10%.

What about the Efficacy in % (Botrytis cinerea; 0.00003 ppm, 5 days incubation) of the same compound?
The Efficacy in % was 18%.

What about the Efficacy in % (Rhizoctonia solani; 0.00000003 ppm, 5 days incubation) of the same compound?
The Efficacy in % was 41%.

What about the Efficacy in % (Rhizoctonia solani; 0.00001 ppm, 7 days incubation) of the same compound?
The Efficacy in % was 9%.

And the Efficacy in % (Gibberella zeae; 0.000001 ppm, 3 days incubation)?
The Efficacy in % was 4%.

What about the Efficacy in % (Gibberella zeae; 0.00001 ppm, 3 days incubation) of the same compound?
The Efficacy in % was 12%.
